In patent US20200254065A1, “LONG-ACTING GLP-2 ANALOGS” (OPKO Biologics Ltd., priority 2019, published 2020):
Marks after values point to notes of the source that are not given here. Square brackets hold non-standard residues; d marks the D form. Ends that are not written are not given here. Peptide text beside a SMILES is read from it. Nle = CCCC[C@H](N)C(=O)O

Legend:
[1] = molecular target: T1, GLP-2 receptor (Homo sapiens, UniProt O95838); experiment: GLP-2 receptor Cell Based Assay (CBA)
T1 sequence (O95838 1-553): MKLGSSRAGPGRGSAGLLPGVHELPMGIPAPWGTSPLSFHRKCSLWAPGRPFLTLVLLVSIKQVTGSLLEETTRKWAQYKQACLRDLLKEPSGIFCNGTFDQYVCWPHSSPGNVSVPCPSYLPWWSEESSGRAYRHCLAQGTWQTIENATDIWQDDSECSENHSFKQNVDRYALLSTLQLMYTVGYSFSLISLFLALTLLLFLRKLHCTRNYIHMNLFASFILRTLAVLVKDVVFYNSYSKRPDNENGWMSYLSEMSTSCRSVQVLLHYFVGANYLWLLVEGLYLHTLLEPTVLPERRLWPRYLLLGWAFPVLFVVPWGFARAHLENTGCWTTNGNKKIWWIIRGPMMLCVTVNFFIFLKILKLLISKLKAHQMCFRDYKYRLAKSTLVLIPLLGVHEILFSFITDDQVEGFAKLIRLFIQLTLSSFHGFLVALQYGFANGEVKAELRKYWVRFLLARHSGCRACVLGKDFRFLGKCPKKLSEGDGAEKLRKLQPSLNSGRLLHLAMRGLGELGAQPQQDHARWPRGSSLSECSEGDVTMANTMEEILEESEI
Protocol: Evaluation of in vitro binding affinity of the different peptides was assessed by using Cell Based Assay (CBA) in the presence of escalating doses of the different peptides.

[2] = test system: intestine epithelium (crypts plus villi); experiment: Crypts plus villi length, histopathology of small intestine; type: in vivo, SD rats; details: for Percent increase of Crypts plus Villi length over vehicle (FIG. 1): injected once at 2 mg/kg peptide dose, 6th day
Protocol: In addition to PEG30-FMS-V4 and PEG30-Fmoc-V4 that have been pharmacology evaluated by small intestinal weight evaluation (As shown in Example 5), four other reversible PEGylated variant 4 (“V4”) conjugates and two reversible linker-V4 conjugates were synthesized. All the above were injected to 6 normal SD rats/group once at 2 mg/kg (peptide dose), while on the 6th day, animals were scarified, and the small intestine was weighted followed by histopathology evaluation. […] Therefore, slices from three areas of the intestine (duodenum, jejunum and ilium) were stained with hematoxylin and eosin and at least 7 Crypts+Villi length/slice were measured. The averaged Villi+Crypt length of each treatment group (n=6) was compared to the vehicle group (negative control) and calculated as percentage increase over vehicle. […]
An additional study to evaluate the efficacy and the longevity of V4 and Cys-FMS-V4 was conducted (Study reference 15204) in which the animals were sacrificed on Days 6 (N=6), 10 (N=4) and 14 (N=4). This experiment measured the pharmacological response compared to the commercially approved SBS treatment drug Gattex. In addition, two new conjugates were tested by conjugating V4 to reduced OSu-linker and Cys-FMS-V4 purified from resin. The animals were injected with a single SC injection at Day 1 with 2 mg/kg peptide content of V4, Cys-FMS-V4, FMS-OSu-V4, Apraglutide and Glepaglutide while Gattex was SC injected daily at 2.5 mg/kg peptide content. […]

[3] = Pharmacokinetics of modified GLP-2 variants in rats; type: in vivo; details: rat, serum, peptide dose 15 mg/kg
[4] = test system: small intestine; experiment: Intestine weight model in rats; type: in vivo, SD rats; details: for Avg. small intestine weight (gr) / Small intestine weight increase over vehicle (%): normal SD rats, injected once at 2 mg/kg peptide dose, 6th day; for Small intestine weight increase over vehicle (%): MAL-FMS-V4 compared to Vehicle 2
Protocol: In the pharmacology study, the conjugates were injected subcutaneously twice, on days 1 and 3 at 1 mg/kg (peptide dose) and intestine weight was performed on day 6. In addition to the PEGylated conjugates, GLP-2-Gly2 was injected at the same dose and regimen for comparison. The average of the intestine weight of each group was compared to that of the vehicle group.
In a different study, several of the PEGylated teduglutide were injected as a single dose at 1 mg/kg and the intestine weight performed on day 6.
Pharmacology and pharmacokinetic studies were performed with the most promising GLP-2 variants to evaluate their efficacy and longevity, respectively. The intestine weight model in rats was conducted to evaluate efficacy, by measuring percent increase of the intestine weight of treated animals over the vehicle group. In this study, the peptides were injected twice, on days 1 and 3 at 1 mg/kg and the intestine weight was conducted on day 6.
PEG20-FMS-V6, PEG20-Fmoc-V6 and PEG40-FMS-V6 were injected once at 1 mg/kg dose on day 1, while group D was also injected twice on days 1 & 3 at 1 mg/kg. The intestine weight was performed on day 6.
Three different reversible PEGylated GLP-2 variants using mutated peptide #4 were injected at 2 mg/kg (peptide dose), once every 6 days for 12 days. On the 12th day the intestine was weighted and compared to the control group. PEG30-FMS-V4 was injected at 0.5 mg/kg as well to evaluate the efficacy dose range.
In addition to PEG30-FMS-V4 and PEG30-Fmoc-V4 that have been pharmacology evaluated by small intestinal weight evaluation (As shown in Example 5), four other reversible PEGylated variant 4 (“V4”) conjugates and two reversible linker-V4 conjugates were synthesized. All the above were injected to 6 normal SD rats/group once at 2 mg/kg (peptide dose), while on the 6th day, animals were scarified, and the small intestine was weighted followed by histopathology evaluation. […] Therefore, slices from three areas of the intestine (duodenum, jejunum and ilium) were stained with hematoxylin and eosin and at least 7 Crypts+Villi length/slice were measured. The averaged Villi+Crypt length of each treatment group (n=6) was compared to the vehicle group (negative control) and calculated as percentage increase over vehicle.
Additional studies were conducted to evaluate the efficacy of the V4 peptide and the reversible MAL-FMS-V4. The long acting effect of V4 and the conjugates were evaluated at Day 6 and Day 10 following treatment (Study reference 15203). All test groups (n=9) were injected SC with 2 mg/kg peptide content at Day 1. At Days 6 and 10, animals were sacrificed and the small intestine underwent histopathology evaluation (6 animals for Day 6, 3 animals for Day 10). FIGS. 12 and 13 show the pharmacology effect of different V4 conjugates and Apraglutide and Glepaglutide as measured by the percent increase of small intestine weight and crypts plus villi length over vehicle, respectively.
To further evaluate the pharmacology efficacy of V4 and Cys-FMS-V4, an experiment was performed to test their acute and prolonged effect on the small intestine (Study reference 15205). In addition, V4 and Cys-FMS-V4 were administrated as a single SC injection on Day 1 at 3 different doses (0.5, 2.0 or 8.0 mg/kg peptide content, 6 rats per group) to assess the dose dependence effect. The pharmacological effect on small intestine weight and villi plus crypts length was measured at Days 3, 7 and 14, and the results are presented in FIGS. 15 and 16. […] It should be noted that this acute response was higher for V4 compared to Cys-FMS-V4 at all 3 dose levels.

[5] = Stability of GLP-2 analogues on incubation at 37° C. (appearance, O.D. reading, RP-HPLC); type: physicochemical; details: following 48 h incubation at 37° C.
Protocol: The GLP-2 analogues were tested for stability via appearance, O.D. reading (A.280, and A.325) and RP-HPLC (purity, and peak area) following t=0, 1 day, and 48 h incubation at 37° C.

[6] = molecular target: T2, GLP-2 receptor (UniProt O95838 1-553, limits assumed); experiment: cell-based or functional assay
T2 sequence (looked up): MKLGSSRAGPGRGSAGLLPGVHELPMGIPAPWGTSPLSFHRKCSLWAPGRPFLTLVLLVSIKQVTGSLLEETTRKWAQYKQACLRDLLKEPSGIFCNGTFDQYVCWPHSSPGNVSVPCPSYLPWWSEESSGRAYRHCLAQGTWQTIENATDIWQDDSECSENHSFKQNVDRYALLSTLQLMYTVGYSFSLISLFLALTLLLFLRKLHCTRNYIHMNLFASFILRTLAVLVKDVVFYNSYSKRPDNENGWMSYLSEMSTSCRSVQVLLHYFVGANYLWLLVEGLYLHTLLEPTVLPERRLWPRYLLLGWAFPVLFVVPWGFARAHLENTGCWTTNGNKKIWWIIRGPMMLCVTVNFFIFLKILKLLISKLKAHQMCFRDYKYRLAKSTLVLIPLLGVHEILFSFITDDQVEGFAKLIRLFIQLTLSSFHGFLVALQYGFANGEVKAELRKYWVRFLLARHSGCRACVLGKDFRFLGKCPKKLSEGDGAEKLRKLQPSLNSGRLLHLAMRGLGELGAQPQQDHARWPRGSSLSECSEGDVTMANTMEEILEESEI

[7] = molecular target: GLP-2 receptor (UniProt O95838); experiment: cell-based or functional assay
[8] = Table 8, average of 3 independent CBA
[9] = 2 mg/kg peptide dose once every 6 days for 12 days, weighed on 12th day

CCCC[C@H](NC(=O)[C@H](CCC(=O)O)NC(=O)[C@H](CC(=O)O)NC(=O)[C@H](CO)NC(=O)[C@H](Cc1ccccc1)NC(=O)[C@H](CO)NC(=O)CNC(=O)[C@H](CC(=O)O)NC(=O)CNC(=O)[C@@H](N)Cc1c[nH]cn1)C(=O)N[C@H](Cc1ccccc1)C(=O)N[C@H](C(=O)N[C@H](C(=O)N[C@@H](CC(C)C)C(=O)N[C@@H](CC(=O)O)C(=O)N[C@@H](CC(C)C)C(=O)N[C@@H](CC(C)C)C(=O)N[C@@H](C)C(=O)N[C@@H](C)C(=O)N[C@@H](CCCNC(=N)N)C(=O)N[C@@H](CC(=O)O)C(=O)N[C@@H](Cc1ccccc1)C(=O)N[C@H](C(=O)N[C@@H](CC(N)=O)C(=O)N[C@@H](Cc1c[nH]c2ccccc12)C(=O)N[C@@H](CC(C)C)C(=O)N[C@H](C(=O)N[C@@H](CCC(N)=O)C(=O)N[C@H](C(=O)N[C@@H](CCCCN)C(=O)N[C@H](C(=O)N[C@H](C(=O)N[C@@H](CC(=O)O)C(N)=O)[C@@H](C)O)[C@@H](C)CC)[C@@H](C)O)[C@@H](C)CC)[C@@H](C)CC)[C@@H](C)CC)[C@@H](C)O [Variant 1, reference compound] (H-HGDGSFSDE[Nle][dF]TILDLLAARDFINWLIQTKITD-NH2)
EC50 Ratio to Teduglutide [1, 8]: 2.9 | EC50 Ratio to Variant 4 [1, 8]: 1.6 | Crypts plus villi length percent increase over vehicle (FIG. 13) ([2]; Study 15203, single SC 2 mg/kg on Day 1, Days 6 and 10): moderate effect that was higher than Glepaglutide and the PEG30-FMS-V4 conjugate

CCCC[C@H](NC(=O)[C@H](CCC(=O)O)NC(=O)[C@H](CC(=O)O)NC(=O)[C@H](CO)NC(=O)[C@H](Cc1ccccc1)NC(=O)[C@H](CO)NC(=O)CNC(=O)[C@H](CCC(=O)O)NC(=O)CNC(=O)[C@@H](N)Cc1c[nH]cn1)C(=O)N[C@H](Cc1c[nH]cn1)C(=O)N[C@H](C(=O)N[C@H](C(=O)N[C@@H](CC(C)C)C(=O)N[C@@H](CC(=O)O)C(=O)N[C@@H](CC(N)=O)C(=O)N[C@@H](CC(C)C)C(=O)N[C@@H](C)C(=O)N[C@@H](C)C(=O)N[C@@H](CCCNC(=N)N)C(=O)N[C@@H](CC(=O)O)C(=O)N[C@@H](Cc1ccccc1)C(=O)N[C@H](C(=O)N[C@@H](CC(N)=O)C(=O)N[C@@H](Cc1c[nH]c2ccccc12)C(=O)N[C@@H](CC(C)C)C(=O)N[C@H](C(=O)N[C@@H](CCC(N)=O)C(=O)N[C@H](C(=O)N[C@@H](CCCCN)C(=O)N[C@H](C(=O)N[C@H](C(=O)N[C@@H](CC(=O)O)C(N)=O)[C@@H](C)O)[C@@H](C)CC)[C@@H](C)O)[C@@H](C)CC)[C@@H](C)CC)[C@@H](C)CC)[C@@H](C)O [Variant 3] (H-HGEGSFSDE[Nle][dH]TILDNLAARDFINWLIQTKITD-NH2)
half-life [3]: 1.9 h | EC50 Ratio to Teduglutide ([1]; Table 7): 2.5 | Increase of intestine weight over vehicle (%) ([4]; modified peptides, two injections on days 1 & 3 at 1 mg/kg, intestine weight on day 6): 4% | Solubility via appearance [5]: V3: clear | Stability via RP-HPLC main peak ([5]; change of main peak): V3: −4%

GLP2 DiscoverX Kit (peptide)
EC50 (nM) Average, GLP2-receptor CBA, 3 independent assays [6]: 0.8 nM | EC50 Ratio to Teduglutide, CBA [6]: 1.8 fold | EC50 Ratio to Teduglutide, GLP2-receptor CBA [6]: 1.3 fold | EC50 Ratio to Variant 4, GLP2-receptor CBA [6]: 0.7 fold | EC50 [nM], Cell Based Assay (CBA), cells overexpressing the GLP-2 receptor [6]: 10.1 nM

MAL-FMS-V4 (HGEGSFSDE[Nle]NTILDLLAARDFINWLIQTKITD-NH2; also: MAL-FMS conjugate, place not given here)
Avg. small intestine weight (gr) [4]: 7.0 gr | Percent increase of Crypts+Villi length over vehicle (FIG. 3) ([2]; Study 15201, 0.5 and 2 mg/kg peptide dose once, 6 days after injection): dose dependent pharmacology effect on the intestine epithelium | Percent increase of Crypts plus Villi length over vehicle (FIG. 1) [2]: showed the most pronounce effect on the intestine epithelium

PEG30-Fmoc-V4 (HGEGSFSDE[Nle]NTILDLLAARDFINWLIQTKITD-NH2; also: PEG30-Fmoc conjugate, place not given here)
Average Intestine weight (gr) [4, 9]: 7.8 gr | Increase of intestine weight over vehicle (%) [4, 9]: 29% | Avg. small intestine weight (gr) [4]: 7.0 gr | Small intestine weight increase over vehicle (%) [4]: 36.0** % | Percent increase of Crypts plus Villi length over vehicle (FIG. 1) [2]: better effect on the intestine epithelium than the V4 peptide

PEG30-MeOF-V4 (HGEGSFSDE[Nle]NTILDLLAARDFINWLIQTKITD-NH2; also: PEG30-MeOF conjugate, place not given here)
Avg. small intestine weight (gr) [4]: 7.0 gr | Small intestine weight increase over vehicle (%) [4]: 39.0** % | Percent increase of Crypts plus Villi length over vehicle (FIG. 1) [2]: better effect on the intestine epithelium than the V4 peptide

HGDGSFSDE[Nle][dF]TILDLLAARDFINWLIQTKITD-NH2 [Apraglutide (V1)]
EC50 (nM) Average, GLP2-receptor CBA, 3 independent assays [7]: 1.7 nM | EC50 Ratio to Teduglutide, GLP2-receptor CBA [7]: 2.9 fold | EC50 Ratio to Variant 4, GLP2-receptor CBA [7]: 1.6 fold

HGEGTFSSELATILDALAARDFIAWLIATKITDKKKKKK-NH2 [Glepaglutide (V10)]
EC50 (nM) Average, GLP2-receptor CBA, 3 independent assays [7]: 5.4 nM | EC50 Ratio to Teduglutide, GLP2-receptor CBA [7]: 9.4 fold | EC50 Ratio to Variant 4, GLP2-receptor CBA [7]: 5.3 fold
